The values below come from patent publication US20230027075A1, “SULFONAMIDE COMPOUNDS TARGETING CD73 AND ADENOSINE RECEPTORS” (Aurigene Discovery Technologies Limited, priority 2019, published 2023).

The target in experiment [1] is T1, human-CD73 (Trp27-Lys547, His-tag) (Homo sapiens, UniProt P21589).
T1 construct: human-CD73 (Trp27-Lys547, His-tag); His-tag
T1 sequence (P21589 27-547): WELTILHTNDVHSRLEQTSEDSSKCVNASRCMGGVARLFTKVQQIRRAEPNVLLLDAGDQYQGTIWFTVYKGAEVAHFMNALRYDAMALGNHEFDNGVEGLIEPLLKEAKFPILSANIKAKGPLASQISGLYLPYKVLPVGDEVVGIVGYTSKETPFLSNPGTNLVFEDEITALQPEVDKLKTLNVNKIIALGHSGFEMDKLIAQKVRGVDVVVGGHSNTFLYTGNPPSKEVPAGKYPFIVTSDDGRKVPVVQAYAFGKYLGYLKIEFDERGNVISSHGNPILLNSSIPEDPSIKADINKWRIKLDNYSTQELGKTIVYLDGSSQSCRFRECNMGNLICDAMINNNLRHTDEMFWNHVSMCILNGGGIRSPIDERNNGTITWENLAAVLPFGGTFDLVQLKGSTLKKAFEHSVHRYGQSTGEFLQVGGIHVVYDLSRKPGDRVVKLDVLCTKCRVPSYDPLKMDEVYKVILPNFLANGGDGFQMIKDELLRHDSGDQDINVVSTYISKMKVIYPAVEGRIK
Description: CD73 biochemical assay (colorimetric, Malachite Green phosphate detection). The conditions noted are these: 2 nM CD73, 50 μM AMP; for inhibition at 20 µM: 20 μM compound, read-out: % inhibition at 20 μM (Percent inhibition data in CD73); for pIC50: four-parameter curve fit, read-out: Potency (IC50 values) of selected compounds in CD73, group. As to the method: A colorimetric-based method was used for assaying compounds of the invention for CD73 enzyme inhibitory activity. Human CD73 catalyzes the conversion of AMP to adenosine with the release of orthophosphate. A Malachite Green Phosphate Detection kit is used to measure the formation of orthophosphate product. […] A compound of the present invention and enzyme are incubated for 30 minutes at room temperature. Next, 20 μL of AMP in assay buffer is added to the plate. The final concentration of CD73 and AMP are 2 nM and 50 μM respectively. Following 30 minutes reaction at room temperature, 20 μL of Malachite reagent is added to all the reaction wells. The formation of green complex formed between Malachite Green, molybdate and free orthophosphate is measured on a plate reader (620 nm).

The target in another experiment is T2, A2aR (Homo sapiens, UniProt P29274).
T2 construct: expressed in transfected cells
Description: A2aR biochemical assay (TR-FRET binding, Tag-lite A2aR labelled cells, fluorescent antagonist). The following applies: 10 nM fluorescent A2aR antagonist; for inhibition at 20 µM: read-out: % inhibition at 20 μM (Percent inhibition data in A2aR); for pIC50: four-parameter curve fit, read-out: Potency (IC50 values) of selected compounds in A2aR, group. As for the experimental part: The compounds of present invention were assayed for A2aR enzyme binding activity in a TR-FRET based method. Typically, 10 μL of A2aR labelled cells in assay buffer (Tag-lite, 1×) is added to a 384-well plate containing 5 μL of a compound of present invention in final 1% DMSO, serially diluted in 1:5 in a 5-6 point titration. The aforesaid compound and cells are incubated for 30 minutes at room temperature. Next, 5 μL of A2aR antagonist (fluorescent ligand) in assay buffer is added to the plate. The final concentration of A2aR antagonist is 10 nM. Following 30 minutes reaction at room temperature, the plate was read on a plate reader (Ex: 340 nm Em: 615 nm and 665 nm) to measure the binding of test compound to A2aR cells. The results are interpreted as percentage inhibition as presented in Table-2A of binding by the test compound with respect to the DMSO control.
On the technique in general: Time-resolved FRET reads energy transfer from a long-lived donor to a nearby acceptor.

Where [2] appears, read: 20 μM compound, vs DMSO control.

Molecules are shown by their SMILES. pIC50: −log10 of the molar value.

The inhibition is the drop in the measured response relative to a control, in per cent. Usually pIC50 stands for the negative decadic logarithm of the IC50, by convention in mol/L. As usually defined, the % inhibition is the relative decrease from the control value, in per cent. Read a low % inhibition as little suppression.

T2 sequence (P29274 whole entry): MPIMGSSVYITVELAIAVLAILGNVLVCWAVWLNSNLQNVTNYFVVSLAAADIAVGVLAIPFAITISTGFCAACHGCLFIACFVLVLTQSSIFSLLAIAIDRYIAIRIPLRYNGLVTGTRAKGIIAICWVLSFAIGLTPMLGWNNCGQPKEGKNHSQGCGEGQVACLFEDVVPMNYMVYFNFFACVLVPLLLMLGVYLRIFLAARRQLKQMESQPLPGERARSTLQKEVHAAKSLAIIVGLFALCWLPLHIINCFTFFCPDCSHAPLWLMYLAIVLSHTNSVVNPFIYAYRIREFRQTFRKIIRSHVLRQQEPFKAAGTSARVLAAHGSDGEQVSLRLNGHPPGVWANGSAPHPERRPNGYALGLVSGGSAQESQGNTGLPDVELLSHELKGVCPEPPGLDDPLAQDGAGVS

In the case of `NC(=O)c1cc(S(=O)(=O)Nc2cccc(CNc3nc(N)n4nc(-c5ccco5)nc4n3)c2)cc(Cl)c1O` [Example A1, 5-(N-(3-(((7-amino-2-(furan-2-yl)-[1,2,4]triazolo[1,5-a][1,3,5]triazin-5-yl)amino)methyl)phenyl)sulfamoyl)-3-chloro-2-hydroxybenzamide], the inhibition at 20 µM amounted to 91% in experiment [1] and 78% on A2aR (setting [2]). Moreover, the pIC50 is less than 6.00 in experiment [1] and greater than 7.60 on A2aR.

With `NC(=O)c1cc(S(=O)(=O)Nc2ccc(CNc3nc(N)n4nc(-c5ccco5)nc4n3)cc2)cc(Cl)c1O` [Example A2, 5-(N-(4-(((7-amino-2-(furan-2-yl)-[1,2,4]triazolo[1,5-a][1,3,5]triazin-5-yl)amino)methyl)phenyl)sulfamoyl)-3-chloro-2-hydroxybenzamide], the inhibition at 20 µM in experiment [1] was 97%; on A2aR (setting [2]) it was 80%. In addition, the pIC50 in experiment [1] was 6.00 to 6.96; on A2aR, less than 7.30.

As for `NC(=O)c1cc(S(=O)(=O)Nc2ccc(CCNc3nc(N)n4nc(-c5ccco5)nc4n3)cc2)cc(Cl)c1O` [Example A3, 5-(N-(4-(2-((7-amino-2-(furan-2-yl)-[1,2,4]triazolo[1,5-a][1,3,5]triazin-5-yl)amino)ethyl)phenyl)sulfamoyl)-3-chloro-2-hydroxybenzamide], the figures for the inhibition at 20 µM (in experiment [1]; at A2aR (setting [2])) were 96% and 83%, respectively. For the same compound, the figures for the pIC50 (in experiment [1]; at A2aR) were 6.00 to 6.96 and greater than 7.60, respectively.

With `Nc1nc(NCCc2ccc(NS(=O)(=O)c3cc(F)c(O)c(Cl)c3)cc2)nc2nc(-c3ccco3)nn12` [Example A4, N-(4-(2-((7-amino-2-(furan-2-yl)-[1,2,4]triazolo[1,5-a][1,3,5]triazin-5-yl)amino)ethyl)phenyl)-3-chloro-5-fluoro-4-hydroxybenzenesulfonamide], the results for the inhibition at 20 µM (in experiment [1]; at A2aR (setting [2])) were 27% and 81%, respectively.

Turning to `NC(=O)c1cc(S(=O)(=O)Nc2ccc(CCNc3nc(N)n4nc(-c5ccco5)nc4n3)c(O)c2)cc(Cl)c1O` [Example A5, 5-(N-(4-(2-((7-amino-2-(furan-2-yl)-[1,2,4]triazolo[1,5-a][1,3,5]triazin-5-yl)amino)ethyl)-3-hydroxyphenyl)sulfamoyl)-3-chloro-2-hydroxybenzamide], the inhibition at 20 µM came to 99% in experiment [1] and 84% at A2aR (setting [2]). Besides, the negative logarithm of the IC50 (pIC50) in experiment [1] was 6.00 to 6.96; at A2aR, greater than 7.60.

Regarding `NC(=O)c1cc(S(=O)(=O)Nc2ccc(CCNc3nc(N)n4nc(-c5ccco5)nc4n3)c(F)c2)cc(Cl)c1O` [Example A6, 5-(N-(4-(2-((7-amino-2-(furan-2-yl)-[1,2,4]triazolo[1,5-a][1,3,5]triazin-5-yl)amino)ethyl)-3-fluorophenyl)sulfamoyl)-3-chloro-2-hydroxybenzamide], in experiment [1], the inhibition at 20 µM amounted to 98% and the negative logarithm of the IC50 (pIC50) was 6.00 to 6.96. Besides, on A2aR (setting [2]), the inhibition at 20 µM is 79%.

For `NC(=O)c1cc(S(=O)(=O)Nc2ccc(CCNc3nc(N)n4nc(-c5ccco5)nc4n3)cc2F)cc(Cl)c1O` [Example A7, 5-(N-(4-(3-((7-amino-2-(furan-2-yl)-[1,2,4]triazolo[1,5-a][1,3,5]triazin-5-yl)amino)ethyl)-2-fluorophenyl)sulfamoyl)-3-chloro-2-hydroxybenzamide], the inhibition at 20 µM in experiment [1] was 42%; at A2aR (setting [2]) it was 84%.

Consider `CC(=O)Nc1nc(NCCc2ccc(NS(=O)(=O)c3cc(Cl)c(O)c(C(N)=O)c3)cc2)nc2nc(-c3ccco3)nn12` [Example A8, 5-(N-(4-(2-((7-acetamido-2-(furan-2-yl)-[1,2,4]triazolo[1,5-a][1,3,5]triazin-5-yl)amino)ethyl)phenyl)sulfamoyl)-3-chloro-2-hydroxybenzamide], for which the inhibition at 20 µM in experiment [1] turned out to be 70%; on A2aR (setting [2]), 81%.

`CC(C)COC(=O)Nc1nc(NCCc2ccc(NS(=O)(=O)c3cc(Cl)c(O)c(C(N)=O)c3)cc2)nc2nc(-c3ccco3)nn12` [Example A9, Isobutyl (5-((4-((3-carbamoyl-5-chloro-4-hydroxyphenyl)sulfonamido)phenethyl)amino)-2-(furan-2-yl)-[1,2,4]triazolo[1,5-a][1,3,5]triazin-7-yl)carbamate]: the inhibition at 20 µM turned out to be 39% in experiment [1] and 82% at A2aR (setting [2]).

Regarding `Nc1nc(NCCc2ccc(NS(=O)(=O)c3ccc(O)c(C(F)(F)F)c3)cc2)nc2nc(-c3ccco3)nn12` [Example A10, N-(4-(2-((7-amino-2-(furan-2-yl)-[1,2,4]triazolo[1,5-a][1,3,5]triazin-5-yl)amino)ethyl)phenyl)-4-hydroxy-3-(trifluoromethyl)benzenesulfonamide], the inhibition at 20 µM came out at 17% in experiment [1] and 88% at A2aR (setting [2]).

With `NC(=O)c1cc(S(=O)(=O)Nc2ccc(CCCNc3nc(N)n4nc(-c5ccco5)nc4n3)cc2)cc(Cl)c1O` [Example A11, 5-(N-(4-(3-((7-amino-2-(furan-2-yl)-[1,2,4]triazolo[1,5-a][1,3,5]triazin-5-yl)amino)propyl)phenyl)sulfamoyl)-3-chloro-2-hydroxybenzamide], in experiment [1], the inhibition at 20 µM came to 98% and the negative-log IC50 (pIC50) was greater than 7.00. Besides, the “% inhibition at 20 μM (Percent inhibition data in A2aR)” value on A2aR (setting [2]) was 88%. For the same compound, the negative logarithm of the IC50 (pIC50) at A2aR was greater than 7.60.

Turning to `NC(=O)c1cc(S(=O)(=O)Nc2ccc(CCCOc3nc(N)n4nc(-c5ccco5)nc4n3)cc2)cc(Cl)c1O` [Example A12, 5-(N-(4-(3-((7-amino-2-(furan-2-yl)-[1,2,4]triazolo[1,5-a][1,3,5]triazin-5-yl)oxy)propyl)phenyl)sulfamoyl)-3-chloro-2-hydroxybenzamide], the values for the inhibition at 20 µM (in experiment [1]; at A2aR (setting [2])) were 99% and 72%, respectively. Moreover, the pIC50 is greater than 7.00 in experiment [1] and less than 7.30 at A2aR.

With `NC(=O)c1cc(S(=O)(=O)Nc2ccc(CCCNc3nc(N)n4nc(-c5ccco5)nc4n3)c(O)c2)cc(Cl)c1O` [Example A13, 5-(N-(4-(3-((7-amino-2-(furan-2-yl)-[1,2,4]triazolo[1,5-a][1,3,5]triazin-5-yl)amino)propyl)-3-hydroxyphenyl)sulfamoyl)-3-chloro-2-hydroxybenzamide], the values for the inhibition at 20 µM (in experiment [1]; at A2aR (setting [2])) were 97% and 83%, respectively. Besides, the values for the pIC50 (in experiment [1]; on A2aR) were greater than 7.00 and 7.30 to 7.60, respectively.

Consider `NC(=O)c1cc(S(=O)(=O)Nc2ccc(CCCNc3nc(N)n4nc(-c5ccco5)nc4n3)c(F)c2)cc(Cl)c1O` [Example A14, 5-(N-(4-(3-((7-amino-2-(furan-2-yl)-[1,2,4]triazolo[1,5-a][1,3,5]triazin-5-yl)amino)propyl)-3-fluorophenyl)sulfamoyl)-3-chloro-2-hydroxybenzamide], for which, in experiment [1], the inhibition at 20 µM is 94% and the negative-log IC50 (pIC50) is greater than 7.00. At A2aR (setting [2]), the inhibition at 20 µM is 82%.

As for `NC(=O)c1cc(S(=O)(=O)Nc2ccc(CCCNc3cc(N)n4nc(-c5ccco5)nc4n3)cc2F)cc(Cl)c1O` [Example A23, 5-(N-(4-(3-((7-amino-2-(furan-2-yl)-[1,2,4]triazolo[1,5-a]pyrimidin-5-yl)amino)propyl)-2-fluorophenyl)sulfamoyl)-3-chloro-2-hydroxybenzamide], at A2aR (setting [2]), the inhibition at 20 µM stood at 78%. In addition, on A2aR, the pIC50 is less than 7.30.

On to `NC(=O)c1cc(S(=O)(=O)Nc2cccc(NCCNc3nc(N)n4nc(-c5ccco5)nc4n3)c2)cc(Cl)c1O` [Example C2, 5-(N-(3-((2-((7-amino-2-(furan-2-yl)-[1,2,4]triazolo[1,5-a][1,3,5]triazin-5-yl)amino)ethyl)amino)phenyl)sulfamoyl)-3-chloro-2-hydroxybenzamide], for which the inhibition at 20 µM on A2aR (setting [2]) is 85%.
